Patent US20080114027A1, “Method for treating delirium” (priority 2006, published 2008)

Columns and labels:
rat tail-flick model = assay: Anti-nociceptive pain testing, rat tail-flick model; assay type: in vivo, Male Sprague-Dawley (CD) rats; conditions: 7.5 mg/kg i.p., magnitude and duration similar to morphine 1.3 mg/kg s.c., FIG. 1
PDE-3 = conditions: cited from earlier work
PDE-4 = conditions: cited from earlier work
PDE-10 = PDE-10 (Homo sapiens, UniProt Q9Y233); conditions: cited from earlier work
Chain of PDE-10 (Q9Y233 whole entry): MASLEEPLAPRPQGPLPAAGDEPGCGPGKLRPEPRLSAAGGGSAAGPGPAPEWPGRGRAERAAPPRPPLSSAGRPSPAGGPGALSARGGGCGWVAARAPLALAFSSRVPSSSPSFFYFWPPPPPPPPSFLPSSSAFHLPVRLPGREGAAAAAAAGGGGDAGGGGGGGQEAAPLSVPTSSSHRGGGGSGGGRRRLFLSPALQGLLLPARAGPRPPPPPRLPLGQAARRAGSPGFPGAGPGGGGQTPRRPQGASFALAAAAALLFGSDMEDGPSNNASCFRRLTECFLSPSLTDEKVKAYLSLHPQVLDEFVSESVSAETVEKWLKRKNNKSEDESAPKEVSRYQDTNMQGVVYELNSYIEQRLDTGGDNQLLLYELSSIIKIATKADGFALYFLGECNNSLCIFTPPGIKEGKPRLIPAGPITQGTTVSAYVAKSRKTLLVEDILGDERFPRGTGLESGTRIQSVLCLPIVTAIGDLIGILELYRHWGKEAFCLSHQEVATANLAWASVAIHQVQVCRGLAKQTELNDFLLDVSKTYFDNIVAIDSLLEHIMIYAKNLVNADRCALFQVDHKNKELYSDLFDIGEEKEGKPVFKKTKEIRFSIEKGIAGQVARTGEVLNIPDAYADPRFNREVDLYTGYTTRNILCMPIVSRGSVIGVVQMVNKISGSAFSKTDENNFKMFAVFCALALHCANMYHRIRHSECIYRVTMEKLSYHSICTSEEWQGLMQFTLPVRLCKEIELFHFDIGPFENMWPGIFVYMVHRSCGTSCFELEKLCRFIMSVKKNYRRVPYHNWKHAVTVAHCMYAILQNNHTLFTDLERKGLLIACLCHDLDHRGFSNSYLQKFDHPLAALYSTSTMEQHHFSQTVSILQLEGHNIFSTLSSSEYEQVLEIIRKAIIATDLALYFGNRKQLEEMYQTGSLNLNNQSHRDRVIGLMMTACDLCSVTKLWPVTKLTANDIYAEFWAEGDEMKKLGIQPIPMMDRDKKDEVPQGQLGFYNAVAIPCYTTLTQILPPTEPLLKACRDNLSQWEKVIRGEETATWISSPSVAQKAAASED

PDE-11 = PDE-11 (Homo sapiens, UniProt Q9HCR9); conditions: cited from earlier work
Chain of PDE-11 (Q9HCR9 whole entry): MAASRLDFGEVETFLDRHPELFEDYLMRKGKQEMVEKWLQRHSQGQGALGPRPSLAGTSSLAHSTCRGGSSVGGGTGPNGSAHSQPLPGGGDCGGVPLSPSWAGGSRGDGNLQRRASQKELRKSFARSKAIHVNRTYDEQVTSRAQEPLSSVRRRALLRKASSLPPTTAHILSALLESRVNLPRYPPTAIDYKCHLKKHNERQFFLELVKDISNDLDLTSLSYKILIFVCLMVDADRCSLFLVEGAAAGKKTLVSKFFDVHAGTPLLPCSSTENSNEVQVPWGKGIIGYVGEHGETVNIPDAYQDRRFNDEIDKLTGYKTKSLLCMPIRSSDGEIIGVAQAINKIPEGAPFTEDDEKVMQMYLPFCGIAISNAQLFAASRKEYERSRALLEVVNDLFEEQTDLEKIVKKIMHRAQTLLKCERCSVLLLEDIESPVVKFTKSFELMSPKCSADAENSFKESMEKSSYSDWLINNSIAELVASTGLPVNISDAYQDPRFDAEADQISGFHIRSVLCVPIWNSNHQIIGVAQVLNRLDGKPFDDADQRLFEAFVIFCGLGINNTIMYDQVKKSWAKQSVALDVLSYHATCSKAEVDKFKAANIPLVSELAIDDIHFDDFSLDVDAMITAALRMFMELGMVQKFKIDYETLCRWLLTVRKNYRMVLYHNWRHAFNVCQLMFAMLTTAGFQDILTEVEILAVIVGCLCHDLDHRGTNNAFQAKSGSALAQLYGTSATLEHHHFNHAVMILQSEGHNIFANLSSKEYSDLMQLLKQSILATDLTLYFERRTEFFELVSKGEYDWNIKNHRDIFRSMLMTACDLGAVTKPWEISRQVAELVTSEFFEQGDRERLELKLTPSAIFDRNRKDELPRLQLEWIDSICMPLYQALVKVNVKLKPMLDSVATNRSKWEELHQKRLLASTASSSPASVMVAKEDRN

Compound: CC(C)C(=O)c1c(C(C)C)nn2ccccc12 [ibudilast, 2-methyl-1-(2-(1-methylethyl)pyrazolo(1,5-a)pyridin-3-yl)1-propanone]
- acute analgesic efficacy (tail-flick latency time) (rat tail-flick model): increased the latency time
- PDE inhibitory activity (PDE-3): most active
- PDE inhibitory activity (PDE-4): most active
- PDE inhibitory activity (PDE-10): most active
- PDE inhibitory activity (PDE-11): most active
